# Laboratory results as given in patent publication US9034403B2, “Yeast extract containing γ-Glu-X or γ-Glu-X-Gly and a method for producing the same” (AJINOMOTO CO., INC., priority 2010, dated 2015).
# Numbered stars: 1 amine (or outer) side, 2 acyl side, 3 side chain; on linkers, the order of the positions; unused ones are H or OH. Square brackets hold non-standard residues; d marks the D form. Peptide text beside a SMILES is read from it. γGlu = O=C(O)[C@H](CCC(=O)[*:2])N[*:1]; Nva = CCC[C@H](N)C(=O)O
# Legend:
# [1] = test system: GSH2 overexpressing strain PG2 and WT strain; assay: Addition of γ-Glu-Val to GSH2 overexpressing strain PG2 and WT strain, γ-Glu-Val-Gly content; type: cell-based, Saccharomyces cerevisiae
# Procedure: GSH2 overexpressing strain PG2 was constructed basically in the same manner as described in Example 10 except that AJ14956 described in Example 19 was used instead of ura3Δ0 from S288C. As a control, WT strain was obtained by returning the deleted URA3 gene into wild type gene from AJ14956 in the same manner described in Example 10 and Example 19.
# One loop of the WT strain or PG2 strain was inoculated into SD medium (50 ml in a 500 ml-volume Sakaguchi flask), and cultured at 30° C. for 24 hours with shaking at a velocity of 120 rpm. Absorbance of the obtained culture broth was measured, and the culture broth was inoculated into the SD medium supplemented with various concentrations of γ-Glu-Val (400 ml in a 2 L-volume conical flask with baffle fins, two or more flasks) so that OD660 was 0.01 at the start of the culture, and culture was performed at 30° C. with shaking by rotation at a velocity of 120 rpm until OD660 reached to the predetermined value. Then, the amount of γ-Glu-Val-Gly in dry cells and the solid content of the extracted extract were calculated in the same manner described previously. As shown in the results, PG2, a GSH2 overexpressing strain, took up γ-Glu-Val from the medium and converted it into γ-Glu-Val-Gly in the cell.
# [2] = test system: Saccharomyces cerevisiae S288C strain; assay: Addition of peptide to medium of S288C strain; peptide content in dry cells and in extract by LC-MS/MS; type: cell-based
# Procedure: Absorbance of the obtained culture broth was measured, the culture broth was inoculated into SD medium (400 ml in a 2 L-volume conical flask with baffle fins, a pluratity of flasks) so that OD660 was 0.01 at the start of the culture (absorbance was measured by using DU640 SPECTROPHTOMETER, BECKMAN COULTER), and culture was performed at 30° C. for 19 hours with shaking by rotation at a velocity of 120 rpm. From the obtained culture broth, 400 OD units of the cells (1 OD unit is defined as cells contained in 1 ml of culture broth of which OD660 is 1) were collected by centrifugal separation. The supernatant was removed as much as possible, and the residual cells were suspended in 45 ml of Milli-Q water. The cells were collected again by centrifugal separation, and resuspended in 45 ml of Milli-Q water. By repeating this operation 3 times in total, the medium was completely removed from the cells. The washed cells were suspended in about 1.5 ml of Milli-Q water, and the suspension was heated at 70° C. for 10 minutes. By this step, the extractable components contained in the cells were extracted. Then, the extract and the cell residue were separated by centrifugation.
# Cell debris were removed from the extract using a centrifugal filtration membrane of 10 kDa (Amicon Ultra—0.5 mL 10K, MILLIPORE, Catalogue Number UFC501096)), the obtained fraction was derivatized with the AQC reagent in the same manner as that used in Example 1, and γ-Glu-Val-Gly and γ-Glu-Val were measured by LC-MS/MS. Separately, the amount of GSH in the cells was measured in a conventional manner (GSH in the extract was derivatized by using a fluorescence reagent ABD-F that binds to thiol group, separated and quantified by HPLC). Furthermore, dry cell weight was measured after the washed cells were dried at 104° C. for 4 hours. From the amounts of γ-Glu-Val-Gly and γ-Glu-Val in the extract prepared from the cells that was contained in a certain volume of culture broth and dry cell weight measured as described above, the amount of these peptides based on weight of dried cells was calculated. […]
# One loop of the S288C strain was inoculated into SD medium (50 ml in a 500 ml-volume Sakaguchi flask), and cultured at 30° C. for 24 hours with shaking at a velocity of 120 rpm. Absorbance of the obtained culture broth was measured, the culture broth was inoculated into SD medium (400 ml in a 2 L-volume conical flask with baffle fins, two or more flasks) so that OD660 was 0.01 at the start of the culture, and culture was performed at 30° C. for 19 hours with shaking by rotation at a velocity of 120 rpm. After 19 hours, γ-Glu-Val-Gly aqueous solutions of various concentrations were added to obtain predetermined concentrations, and the culture was continued for 1 hour. Using these culture broths, the γ-Glu-Val-Gly content in dry cells was calculated in the same manner as in Example 2. Furthermore, the solid content of the extract was calculated, and the amount of γ-Glu-Val-Gly in the solid content was also calculated. […]
# The cells were collected from the total culture broth, and washed in the same manner as that of Example 2. The washed cells in an amount of 400 OD units were suspended in 1.5 ml of Milli-Q water. This suspension was maintained at 70° C. for 10 minutes to produce an extract from the yeast cells. Furthermore, the suspension was centrifuged to remove the cell residues and thereby collect only the extract. The γ-Glu-Val-Gly concentration of this extract (extract of addition experiment) was measured to be about 300 ppm, and solid content was about 1%. The γ-Glu-Val-Gly concentration in an extract prepared in the same way but without adding γ-Glu-Val-Gly to the culture broth (extract of no addition experiment) was below the quantitation limit, and solid content was about 1%.
# One loop of the S288C strain was inoculated into SD medium (50 ml in a 500 ml-volume Sakaguchi flask), and cultured at 30° C. for 24 hours with shaking at a velocity of 120 rpm. […]
# [3] = test system: S288C, Y3560 and YEp24-PTDH3-GSH2 strains; assay: Influence of YEp24-PTDH3-GSH2 on γ-EV to γ-EVG conversion; type: cell-based, Saccharomyces cerevisiae; details: 18 hours
# Procedure: Each of the S288C ura3Δ227/YEp24-PTDH3-GSH2, Y3560/YEp24-PTDH3-GSH2, S288C and Y3560 strains, was cultivated in 50-ml tubes containing 10 ml of SD medium with 100 ppm γ-Glu-Val as a final concentration. For Y3560 strain medium was also supplemented with uracil (20 mg/L). Tubes were inoculated by overnight culture of corresponding strain at initial OD600=0.01, and placed in rotation shaker at 240 rpm, 30° C. for 18 hours. Then cells from 2 ml of broth culture were harvested by centrifugation, and were washed by 1 ml of milliQ water three times. Then washed cells were suspended in 1 ml of milliQ and were incubated at 70° C. for 10 min with a water bath to extract intracellular materials. After cell debris and the extract were separated by centrifugation, aqueous phase was transferred to clean vial and then the vial was vacuum-dried. Thus the dried extract was prepared. Then γ-Glu-Val-Gly in the dried extract was measured with LC-MS/MS analysis as it is described in example 12.
# [4] = test system: GSH1 overexpressing strain AG1; assay: Addition of nVal to GSH1 overexpressing strain AG1, γ-Glu-nVal content; type: cell-based, Saccharomyces cerevisiae; details: for γ-Glu-nVal content: culture continued 1 hour
# Procedure: Then, this AG1 strain was cultivated in SD medium supplemented with nVal. More specifically, one loop of the AG1 strain was inoculated into SD medium (50 ml in a 500 ml-volume Sakaguchi flask), and cultured at 30° C. for 24 hours with shaking at a velocity of 120 rpm. Absorbance of the obtained culture broth was measured, and the culture broth was inoculated into SDP medium (400 ml in a 2 L-volume conical flask with baffle fins, two or more flasks) so that OD660 was 0.01 at the start of the culture, and culture was performed at 30° C. for 23 hours with shaking by rotation at a velocity of 120 rpm. After 23 hours, nVal solution was added to a final concentration of 10 ppm or 100 ppm, and the cultures were continued for 1 hour. Then, the amount of γ-Glu-nVal was measured in the same manner described in the experimental example 15. The γ-Glu-nVal content was 0.07% when 10 ppm of nVal was added to the medium and the γ-Glu-nVal content was 0.37% when 100 ppm of nVal was added to the medium. Then, yeast extract containing γ-Glu-nVal was prepared from the broth culture cultivated with 100 ppm nVal basically in the same manner as described in Example 16. This yeast extract contained 1.44% γ-Glu-nVal at the dry matter base. This yeast extract would give strong kokumi for initial and middle taste from its character.
# [5] = test system: S288C PADH1-HGT1 (Hgt1p overproducing strain) and S288C; assay: Peptide uptake of Hgt1p overproducing strain and parental strain S288C, intracellular content on dry weight cell; type: cell-based, Saccharomyces cerevisiae; details: S288C PADH1-HGT1; γ-Glu-nVal-Gly 100 ppm added to the medium
# Procedure: One loop of the S288C strain was inoculated into SD medium (50 ml in a 500 ml-volume Sakaguchi flask), and cultured at 30° C. for 24 hours with shaking at a velocity of 120 rpm. Absorbance of the obtained culture broth was measured, the culture broth was inoculated into SD medium (400 ml in a 2 L-volume conical flask with baffle fins, two or more flasks) so that OD660 was 0.01 at the start of the culture, and culture was performed at 30° C. for 19 hours with shaking by rotation at a velocity of 120 rpm. After 19 hours, γ-Glu-Val-Gly aqueous solutions of various concentrations were added to obtain predetermined concentrations, and the culture was continued for 1 hour. Using these culture broths, the γ-Glu-Val-Gly content in dry cells was calculated in the same manner as in Example 2. Furthermore, the solid content of the extract was calculated, and the amount of γ-Glu-Val-Gly in the solid content was also calculated.
# The S288C PADH1-HGT1, Hgt1p overproducing strain obtained in Example 12, and its parental strain S288C, were evaluated for their ability to take up γ-Glu-Val-Gly in the same manners as described in Example 4. The amount of γ-Glu-Val-Gly added into the medium was 100 ppm as a final concentration. As a result, intracellular content of γ-Glu-Val-Gly in S288C on the dry weight cell was about 0.9%, but intracellular content of γ-Glu-Val-Gly in S288C PADH1-HGT1 on the dry weight cell was about 4.9%.
# S288C PADH1-HGT1, Hgt1p overproducing strain obtained in Example 12, and its parental strain S288C were evaluated for their γ-Glu-nVal-Gly uptake abilities in the same manners as described in Example 4 and Example 13. The amount of γ-Glu-nVal-Gly added to the medium was 100 ppm as a final concentration.
# [6] = PG2 strain, γ-Glu-Val in the medium 100 ppm, CT 21 hr
# [7] = PG2 strain, γ-Glu-Val in the medium 500 ppm, CT 21 hr
# [8] = WT strain, γ-Glu-Val in the medium 100 ppm, CT 19 hr
# [9] = WT strain, γ-Glu-Val in the medium 500 ppm, CT 19 hr
# [10] = 25 ppm γ-Glu-Val added to medium after 19 hours, culture continued 1 hour
# [11] = 100 ppm γ-Glu-Val added to medium after 19 hours, culture continued 1 hour
# [12] = 200 ppm γ-Glu-Val added to medium after 19 hours, culture continued 1 hour
# [13] = γ-Glu-Val 100 ppm added to SD medium in advance, culture 24 hours
smiles,measurement,setting,value
CC(C)[C@H](NC(=O)CC[C@H](N)C(=O)O)C(=O)O [γ-Glu-Val],γ-Glu-Val-Gly content in dry cells,[1]; [6],81 ppm
same,γ-Glu-Val-Gly content in solid content of extract,[1]; [6],384 ppm
same,γ-Glu-Val-Gly content in dry cells,[1]; [7],123 ppm
same,γ-Glu-Val-Gly content in solid content of extract,[1]; [7],585 ppm
same,γ-Glu-Val-Gly content in dry cells,[1]; [8],7 ppm
same,γ-Glu-Val-Gly content in solid content of extract,[1]; [8],29 ppm
same,γ-Glu-Val-Gly content in dry cells,[1]; [9],7 ppm
same,γ-Glu-Val-Gly content in solid content of extract,[1]; [9],29 ppm
same,γ-Glu-Val content in dry cells,[2]; [10],1468 ppm
same,γ-Glu-Val content in solid content of extract,[2]; [10],8491 ppm
same,γ-Glu-Val content in dry cells,[2]; [11],6369 ppm
same,γ-Glu-Val content in solid content of extract,[2]; [11],27599 ppm
same,γ-Glu-Val content in dry cells,[2]; [12],10930 ppm
same,γ-Glu-Val content in solid content of extract,[2]; [12],49474 ppm
same,γ-Glu-Val present in dry cells,[2]; [13],7171 ppm
same,γ-Glu-Val-Gly present in dry cells,[2]; [13],20 ppm
same,γ-EVG,"[3]; strain S288C ura3Δ227/YEp24-PTDH3-GSH2, 100 ppm γ-Glu-Val in SD medium",705 μg 1^−1 OD600^−1
same,γ-EVG,"[3]; strain S288C, 100 ppm γ-Glu-Val in SD medium",6 μg 1^−1 OD600^−1
same,γ-EVG,"[3]; strain Y3560/YEp24-PTDH3-GSH2, 100 ppm γ-Glu-Val in SD medium",2039 μg 1^−1 OD600^−1
same,γ-EVG,"[3]; strain Y3560, 100 ppm γ-Glu-Val in SD medium with uracil",110 μg 1^−1 OD600^−1
"CCC[C@H](N)C(=O)O [nVal, norvaline]",γ-Glu-nVal content,[4]; 10 ppm of nVal added after 23 hours,0.07%
same,γ-Glu-nVal content,[4]; 100 ppm of nVal added after 23 hours,0.37%
same,γ-Glu-nVal in yeast extract at the dry matter base,[4]; yeast extract from broth culture cultivated with 100 ppm nVal,1.44%
CCC[C@H](NC(=O)CC[C@H](N)C(=O)O)C(=O)NCC(=O)O [γ-Glu-nVal-Gly] (γGlu-[Nva]-Gly-OH),intracellular content of γ-Glu-nVal-Gly on the dry weight cell,[5],about 2.84%
same,γ-Glu-nVal-Gly concentration of extract,"[2]; 50 ppm γ-Glu-nVal-Gly added after 19 hours, culture continued 1 hour, 400 OD units in 1.5 ml, solid content about 1%",about 100 ppm
same,γ-Glu-nVal-Gly content in the dry cell,[2]; γ-Glu-nVal-Gly added into the medium at 10 ppm,about 0.07%
same,γ-Glu-nVal-Gly content in the dry cell,[2]; γ-Glu-nVal-Gly added into the medium at 100 ppm,about 0.09%
CCC[C@H](NC(=O)CC[C@H](N)C(=O)O)C(=O)O [γ-Glu-nVal],γ-Glu-nVal content in the dry cell,[2]; γ-Glu-nVal added into the medium at 10 ppm,about 0.03%
same,γ-Glu-nVal content in the dry cell,[2]; γ-Glu-nVal added into the medium at 100 ppm,about 0.13%
